# Tested on: patients with elevated triglyceride levels on statin therapy
# Experiment: REDUCE-IT trial: safety (treatment-emergent adverse events, bleeding, atrial fibrillation/flutter)
# [1] = TEAE by preferred term, Safety population, N = 4089
# [2] = gastrointestinal TEAEs, Safety population, N = 4089
# [3] = serious bleeding TEAE by preferred term, N = 4089
# [4] = serious bleeding TEAE, Safety population, N = 4089
# Method: Specification of Variables and Procedures: Safety assessments included adverse events, clinical laboratory measurements (chemistry, hematology), 12-lead ECGs, vital signs (systolic and diastolic blood pressure, heart rate, respiratory rate, and body temperature), weight, waist circumference, and physical examinations as per Study Procedures in Table 1. […] All laboratory test results were evaluated by the investigator as to their clinical significance. Any observations at physical examinations or laboratory values considered by the investigator to be clinically significant were considered an adverse event.
# An adverse event can therefore be any unfavorable and/or unintended sign (including an abnormal laboratory finding), symptom, or disease temporally associated with the use of an investigational medication product, whether or not related to the investigational medication product. All adverse events, including observed or volunteered problems, complaints, or symptoms, were recorded on the appropriate CRF. Each adverse event was evaluated for duration, intensity, and causal relationship with the study medication or other factors.
# Serious Adverse Events: A serious adverse event (SAE) is defined as an adverse event that meets any of the following criteria: • Results in death; • Is life-threatening—The term “life-threatening” in the definition of “serious” refers to an event in which the patient was at risk of death at the time of the event. […] Important medical events that may not result in death, be life threatening, or require hospitalization were considered an SAE when, based upon appropriate medical judgment, they may have jeopardized the patient and may have required medical or surgical intervention to prevent one of the outcomes listed above.
# Adverse Events of Special Interest: Bleeding-related adverse events, glucose control (fasting blood glucose and HbA1c), and indicators of hepatic disorders (e.g., ALT or AST increases >3×ULN, total bilirubin increases of ≥2×ULN) were summarized separately and compared between treatment groups.
# Analysis of Safety: All analyses of safety were conducted on the safety population, which was defined as all randomized patients. The safety assessment was based on the frequency of adverse events, physical exams, vital signs and safety laboratory tests. AEs with new onset during the study between the initiation of study drug and 30 days after the last dose of study drug for each patient was considered treatment-emergent (TEAEs). This included any AE with onset prior to initiation of study drug and increased severity after the treatment initiation.
# This included overall incidence rates (regardless of severity and relationship to study drug), and incidence rates for moderate or severe adverse events. A summary of SAEs and adverse events leading to early discontinuation (for ≥30 days) were presented through data listings. Patients who restarted study drug were included in the summary of AEs leading to discontinuation. Safety laboratory tests and vital signs were summarized by post-treatment change from baseline for each of the parameters using descriptive statistics by treatment group. Those patients with significant laboratory abnormalities were identified in data listings. Additional safety parameters were summarized in data listings.
smiles,measurement,setting,value
"CC/C=C\C/C=C\C/C=C\C/C=C\C/C=C\CCCC(=O)OCC [icosapent ethyl, eicosapentaenoic acid ethyl ester]","Pneumonia, number of patients with serious treatment-emergent adverse event",N = 4089,105
same,"Pneumonia, patients with serious treatment-emergent adverse event",N = 4089,2.6%
same,"Serious TEAE Leading to Death, % of patients","Safety population, N = 4089",(2.3%)
same,"Serious TEAE Leading to Death, number of patients","Safety population, N = 4089",94
same,"Serious TEAE Leading to Withdrawal of Study Drug, % of patients","Safety population, N = 4089",(2.2%)
same,"Serious TEAE Leading to Withdrawal of Study Drug, number of patients","Safety population, N = 4089",88
same,"Serious TEAE, % of patients","Safety population, N = 4089",(30.6%)
same,"Serious TEAE, number of patients","Safety population, N = 4089",1252
same,"Subjects with at Least One TEAE, % of patients","Safety population, N = 4089",(81.8%)
same,"Subjects with at Least One TEAE, number of patients","Safety population, N = 4089",3343
same,"TEAE Leading to Withdrawal of Study Drug, % of patients","Safety population, N = 4089",(7.9%)
same,"TEAE Leading to Withdrawal of Study Drug, number of patients","Safety population, N = 4089",321
same,"Anemia, % of patients",[1],4.7%
same,"Anemia, number of patients",[1],191
same,"Angina pectoris, % of patients",[1],4.9%
same,"Angina pectoris, number of patients",[1],200
same,"Arthralgia, % of patients",[1],7.7%
same,"Arthralgia, number of patients",[1],313
same,"Atrial fibrillation, % of patients",[1],5.3%
same,"Atrial fibrillation, number of patients",[1],215
same,"Back pain, % of patients",[1],8.2%
same,"Back pain, number of patients",[1],335
same,"Bronchitis, % of patients",[1],7.5%
same,"Bronchitis, number of patients",[1],306
same,"Cataract, % of patients",[1],5.7%
same,"Cataract, number of patients",[1],233
same,"Chest pain, % of patients",[1],6.7%
same,"Chest pain, number of patients",[1],273
same,"Constipation, % of patients",[1],5.4%
same,"Constipation, number of patients",[1],221
same,"Cough, % of patients",[1],5.9%
same,"Cough, number of patients",[1],241
same,"Diarrhea, % of patients",[1],9.0%
same,"Diarrhea, number of patients",[1],367
same,"Dizziness, % of patients",[1],5.7%
same,"Dizziness, number of patients",[1],235
same,"Dyspnea, % of patients",[1],6.2%
same,"Dyspnea, number of patients",[1],254
same,"Fatigue, % of patients",[1],5.6%
same,"Fatigue, number of patients",[1],228
same,"Hypertension, % of patients",[1],7.8%
same,"Hypertension, number of patients",[1],320
same,"Influenza, % of patients",[1],6.4%
same,"Influenza, number of patients",[1],263
same,"Nasopharyngitis, % of patients",[1],7.7%
same,"Nasopharyngitis, number of patients",[1],314
same,"Osteoarthritis, % of patients",[1],5.9%
same,"Osteoarthritis, number of patients",[1],241
same,"Pain in extremity, % of patients",[1],5.7%
same,"Pain in extremity, number of patients",[1],235
same,"Peripheral edema, % of patients",[1],6.5%
same,"Peripheral edema, number of patients",[1],267
same,"Pneumonia, % of patients",[1],6.4%
same,"Pneumonia, number of patients",[1],263
same,"Upper respiratory tract infection, % of patients",[1],7.6%
same,"Upper respiratory tract infection, number of patients",[1],312
same,"Urinary tract infection, % of patients",[1],6.2%
same,"Urinary tract infection, number of patients",[1],253
same,"Gastroesophageal Reflux Disease, % of patients",[2],3.0%
same,"Gastroesophageal Reflux Disease, number of patients",[2],124
same,"Gastrointestinal disorders (primary system organ class), % of patients",[2],33.0%
same,"Gastrointestinal disorders (primary system organ class), number of patients",[2],1350
same,"Nausea, % of patients",[2],4.6%
same,"Nausea, number of patients",[2],190
same,"anemia, adverse event rate",in vivo,4.7%
same,"atrial fibrillation or flutter requiring hospitalization (adjudicated tertiary endpoint), rate",in vivo,3.1%
same,"atrial fibrillation, adverse event rate",in vivo,5.3%
same,"diarrhea, adverse event rate",in vivo,9%
same,"gastrointestinal adverse events, rate",in vivo,33.0%
same,"gastrointestinal bleeding (serious), rate",in vivo,1.5%
same,new or unexpected important adverse effects in the safety population,in vivo,no new or unexpected important adverse effects
same,overall adverse event rates compared with placebo,in vivo,similar
same,"peripheral edema, adverse event rate",in vivo,6.5%
same,"serious central nervous system bleeding, rate",in vivo,0.3%
same,tolerability,in vivo,well tolerated
same,"treatment-emergent serious adverse events for bleeding, rate",in vivo,2.7%
same,rates of adverse events or serious adverse events leading to withdrawal of study drug vs placebo,"in vivo, listed as AMR101",no significant differences
same,"Aortic Aneurysm Rupture, % of patients",[3],(0.0%)
same,"Aortic Aneurysm Rupture, number of patients",[3],1
same,"Brain Contusion, % of patients",[3],(0.0%)
same,"Brain Contusion, number of patients",[3],0
same,"Catheter Site Hemorrhage, % of patients",[3],(0.0%)
same,"Catheter Site Hemorrhage, number of patients",[3],0
same,"Cerebral Hemorrhage, % of patients",[3],(0.0%)
same,"Cerebral Hemorrhage, number of patients",[3],0
same,"Cystitis Hemorrhagic, % of patients",[3],(0.0%)
same,"Cystitis Hemorrhagic, number of patients",[3],2
same,"Diverticulitis Intestinal Hemorrhagic, % of patients",[3],(0.0%)
same,"Diverticulitis Intestinal Hemorrhagic, number of patients",[3],0
same,"Diverticulum Intestinal Hemorrhagic, % of patients",[3],(0.1%)
same,"Diverticulum Intestinal Hemorrhagic, number of patients",[3],3
same,"Duodenal Ulcer Hemorrhage, % of patients",[3],(0.0%)
same,"Duodenal Ulcer Hemorrhage, number of patients",[3],2
same,"Ecchymosis, % of patients",[3],(0.0%)
same,"Ecchymosis, number of patients",[3],1
same,"Epistaxis, % of patients",[3],(0.2%)
same,"Epistaxis, number of patients",[3],7
same,"Esophageal Hemorrhage, % of patients",[3],(0.0%)
same,"Esophageal Hemorrhage, number of patients",[3],0
same,"Extravasation Blood, % of patients",[3],(0.0%)
same,"Extravasation Blood, number of patients",[3],1
same,"Gastric Hemorrhage, % of patients",[3],(0.0%)
same,"Gastric Hemorrhage, number of patients",[3],1
same,"Gastric Ulcer Hemorrhage, % of patients",[3],(0.1%)
same,"Gastric Ulcer Hemorrhage, number of patients",[3],3
same,"Gastrointestinal Angiodysplasia Hemorrhagic, % of patients",[3],(0.0%)
same,"Gastrointestinal Angiodysplasia Hemorrhagic, number of patients",[3],1
same,"Gastrointestinal Hemorrhage, % of patients",[3],(0.6%)
same,"Gastrointestinal Hemorrhage, number of patients",[3],26
same,"Genital Hemorrhage, % of patients",[3],(0.0%)
same,"Genital Hemorrhage, number of patients",[3],1
same,"Hemarthrosis, % of patients",[3],(0.0%)
same,"Hemarthrosis, number of patients",[3],0
same,"Hematemesis, % of patients",[3],(0.1%)
same,"Hematemesis, number of patients",[3],3
same,"Hematochezia, % of patients",[3],(0.0%)
same,"Hematochezia, number of patients",[3],1
same,"Hematoma, % of patients",[3],(0.0%)
same,"Hematoma, number of patients",[3],1
same,"Hematuria, % of patients",[3],(0.2%)
same,"Hematuria, number of patients",[3],8
same,"Hemoptysis, % of patients",[3],(0.0%)
same,"Hemoptysis, number of patients",[3],1
same,"Hemorrhagic Anemia, % of patients",[3],(0.1%)
same,"Hemorrhagic Anemia, number of patients",[3],4
same,"Hemorrhagic Duodenitis, % of patients",[3],(0.0%)
same,"Hemorrhagic Duodenitis, number of patients",[3],0
same,"Hemorrhagic Transformation Stroke, % of patients",[3],(0.0%)
same,"Hemorrhagic Transformation Stroke, number of patients",[3],1
same,"Hemorrhoidal Hemorrhage, % of patients",[3],(0.1%)
same,"Hemorrhoidal Hemorrhage, number of patients",[3],3
same,"Hemothorax, % of patients",[3],(0.0%)
same,"Hemothorax, number of patients",[3],1
same,"Immune Thrombocytopenic Purpura, % of patients",[3],(0.0%)
same,"Immune Thrombocytopenic Purpura, number of patients",[3],0
same,"Intra-Abdominal Hemorrhage, % of patients",[3],(0.0%)
same,"Intra-Abdominal Hemorrhage, number of patients",[3],1
same,"Intracranial Hemorrhage, % of patients",[3],(0.0%)
same,"Intracranial Hemorrhage, number of patients",[3],0
same,"Large Intestinal Hemorrhage, % of patients",[3],(0.0%)
same,"Large Intestinal Hemorrhage, number of patients",[3],1
same,"Lower Gastrointestinal Hemorrhage, % of patients",[3],(0.1%)
same,"Lower Gastrointestinal Hemorrhage, number of patients",[3],5
same,"Mallory-Weiss Syndrome, % of patients",[3],(0.0%)
same,"Mallory-Weiss Syndrome, number of patients",[3],1
same,"Melaena, % of patients",[3],(0.1%)
same,"Melaena, number of patients",[3],3
same,"Menorrhagia, % of patients",[3],(0.0%)
same,"Menorrhagia, number of patients",[3],1
same,"Mouth Hemorrhage, % of patients",[3],(0.0%)
same,"Mouth Hemorrhage, number of patients",[3],0
same,"Pancreatitis Hemorrhagic, % of patients",[3],(0.0%)
same,"Pancreatitis Hemorrhagic, number of patients",[3],1
same,"Peptic Ulcer Hemorrhage, % of patients",[3],(0.0%)
same,"Peptic Ulcer Hemorrhage, number of patients",[3],1
same,"Pericardial Hemorrhage, % of patients",[3],(0.0%)
same,"Pericardial Hemorrhage, number of patients",[3],0
same,"Post Procedural Hematoma, % of patients",[3],(0.0%)
same,"Post Procedural Hematoma, number of patients",[3],1
same,"Post Procedural Hematuria, % of patients",[3],(0.0%)
same,"Post Procedural Hematuria, number of patients",[3],0
same,"Post Procedural Hemorrhage, % of patients",[3],(0.1%)
same,"Post Procedural Hemorrhage, number of patients",[3],5
same,"Rectal Hemorrhage, % of patients",[3],(0.2%)
same,"Rectal Hemorrhage, number of patients",[3],10
same,"Renal Hemorrhage, % of patients",[3],(0.0%)
same,"Renal Hemorrhage, number of patients",[3],0
same,"Retinal Hemorrhage, % of patients",[3],(0.0%)
same,"Retinal Hemorrhage, number of patients",[3],1
same,"Retroperitoneal Hematoma, % of patients",[3],(0.0%)
same,"Retroperitoneal Hematoma, number of patients",[3],0
same,"Retroperitoneal Hemorrhage, % of patients",[3],(0.0%)
same,"Retroperitoneal Hemorrhage, number of patients",[3],1
same,"Shock Hemorrhagic, % of patients",[3],(0.0%)
same,"Shock Hemorrhagic, number of patients",[3],2
same,"Subarachnoid Hemorrhage, % of patients",[3],(0.0%)
same,"Subarachnoid Hemorrhage, number of patients",[3],2
same,"Subdural Hematoma, % of patients",[3],(0.2%)
same,"Subdural Hematoma, number of patients",[3],9
same,"Subdural Hemorrhage, % of patients",[3],(0.0%)
same,"Subdural Hemorrhage, number of patients",[3],2
same,"Traumatic Hematoma, % of patients",[3],(0.0%)
same,"Traumatic Hematoma, number of patients",[3],2
same,"Traumatic Intracranial Hemorrhage, % of patients",[3],(0.0%)
same,"Traumatic Intracranial Hemorrhage, number of patients",[3],0
same,"Ulcer Hemorrhage, % of patients",[3],(0.0%)
same,"Ulcer Hemorrhage, number of patients",[3],1
same,"Upper Gastrointestinal Hemorrhage, % of patients",[3],(0.1%)
same,"Upper Gastrointestinal Hemorrhage, number of patients",[3],3
same,"Urinary Bladder Hemorrhage, % of patients",[3],(0.0%)
same,"Urinary Bladder Hemorrhage, number of patients",[3],1
same,"Bleeding related disorders, % of patients",[4],(2.7%)
same,"Bleeding related disorders, number of patients",[4],111
same,"Central nervous system bleeding, % of patients",[4],(0.3%)
same,"Central nervous system bleeding, number of patients",[4],14
same,"Gastrointestinal bleeding, % of patients",[4],(1.5%)
same,"Gastrointestinal bleeding, number of patients",[4],62
same,"Other bleeding, % of patients",[4],(1.0%)
same,"Other bleeding, number of patients",[4],41

# Source: patent US20200261391A1, “METHODS OF REDUCING THE RISK OF A CARDIOVASCULAR EVENT IN A STATIN-TREATED SUBJECT BY INCREASING SERUM AND PLASMA EPA AND DPA LEVELS” (Amarin Pharmaceuticals Ireland Limited, priority 2019, published 2020)
